Laboratory results from patent US20190135793A1, “HETEROCYCLIC INHIBITORS OF KDM5 FOR THE TREATMENT OF DISEASE” (Board of Regents, The University of Texas System, priority 2017, published 2019).
Where two headings read alike, the source gives them in different places.

Assays:
[1] = biological target: T1, KDM4C (Homo sapiens, UniProt Q9H3R0); test: KDM4C AlphaScreen assay; format: biochemical; conditions: AlphaScreen; full length KDM4C 0.2 nM; biotinylated H3K9Me3 peptide 3 nM; 30 minutes at room temperature
T1 construct: Full length of KDM5B and KDM4C protein were purchased from Active Motif; purchased Active Motif 31858
T1 sequence (Q9H3R0 1-1056): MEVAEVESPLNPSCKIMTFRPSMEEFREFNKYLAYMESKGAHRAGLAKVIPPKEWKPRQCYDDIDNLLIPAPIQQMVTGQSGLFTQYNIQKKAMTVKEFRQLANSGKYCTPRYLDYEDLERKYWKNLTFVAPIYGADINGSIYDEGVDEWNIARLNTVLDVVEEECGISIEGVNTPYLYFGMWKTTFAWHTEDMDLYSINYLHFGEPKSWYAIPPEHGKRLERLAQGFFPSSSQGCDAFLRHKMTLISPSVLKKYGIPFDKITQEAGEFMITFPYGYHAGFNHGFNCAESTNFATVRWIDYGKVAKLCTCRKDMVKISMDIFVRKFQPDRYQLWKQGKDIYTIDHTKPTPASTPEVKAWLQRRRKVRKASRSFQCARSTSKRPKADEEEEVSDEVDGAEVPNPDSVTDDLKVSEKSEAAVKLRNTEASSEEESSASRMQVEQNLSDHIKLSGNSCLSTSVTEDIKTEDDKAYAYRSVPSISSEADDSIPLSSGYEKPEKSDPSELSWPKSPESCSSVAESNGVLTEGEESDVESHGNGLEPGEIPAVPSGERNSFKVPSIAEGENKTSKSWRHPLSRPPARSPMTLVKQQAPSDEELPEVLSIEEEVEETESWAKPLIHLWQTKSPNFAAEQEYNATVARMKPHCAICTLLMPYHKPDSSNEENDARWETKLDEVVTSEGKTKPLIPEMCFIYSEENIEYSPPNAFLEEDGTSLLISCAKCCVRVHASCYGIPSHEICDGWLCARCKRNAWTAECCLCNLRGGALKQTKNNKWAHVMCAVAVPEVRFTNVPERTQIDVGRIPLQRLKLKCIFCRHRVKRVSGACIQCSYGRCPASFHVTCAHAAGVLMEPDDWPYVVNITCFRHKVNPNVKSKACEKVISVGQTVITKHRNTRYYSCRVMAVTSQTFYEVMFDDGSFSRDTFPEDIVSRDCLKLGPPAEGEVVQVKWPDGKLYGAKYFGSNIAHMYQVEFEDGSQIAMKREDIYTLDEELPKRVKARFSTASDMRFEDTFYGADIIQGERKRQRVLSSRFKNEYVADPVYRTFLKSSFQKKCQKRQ
Experimental: (§1) KDM4C and KDM5B AlphaScreen Assay Material and Method
(§2) Compounds disclosed herein were (and can be) screened using the following assay.
Peptides used in all experiments were purchased from Anaspe. Full length of KDM5B and KDM4C protein were purchased from Active Motif: KDM5B (cat#31832) and KDM4C (Cat #31858). Final concentration of KDM5B and KDM4C used in the assay were 0.5 nM and 0.2 nM. Final concentration of peptides for 5B and 4C used in the assay were 3 nM.
AlphaScreen assays was conducted as following protocol: buffer used to make compound plate or DMSO is composed of 50 mM HEPES pH 7.4, 0.003% Tween-20; buffer used to dilute enzyme is composed of 50 mM HEPES pH 7.4, 0.003% Tween-20, 0.01% BSA, 500 μM TCEP; and buffer used to dilute the substrate is composed of 50 mM HEPES pH 7.4, 0.003% Tween-20, (NH4)2Fe(SO4)2 15 μM, alpha-ketoglutaric acid 4 μM and L-ascorbic acid 100 μM. 4 μL of KDM5B or KDM4C protein were added to 384-well OptiPlate by using multiflow, followed by 4 μl of either buffer or compound. Plates were sealed, spun down and incubated at RT for 15 min. 4 μl of biotinylated peptide was added to the plate, the plate was incubated at room temperature for 25 minutes (KDM5B) and 30 minutes (KDM4C) after sealed and spun down. Streptavidin donor beads and acceptor beads were diluted and mixed in the detection buffer with 7.5 mM EDTA, followed by adding 8 μl of acceptor and donor beads mix to the plate, before the plate was sealed and incubated at room temperature for 3 h or overnight at dark. The plate was read on Envision plate reader (PerkinElmer) using Alphascreen protocol. IC50s were calculated in GraphPad Prism 6.

[2] = biological target: T2, KDM5B (Homo sapiens, UniProt Q9UGL1); test: biochemical
T2 construct: Full length of KDM5B and KDM4C protein were purchased from Active Motif; purchased Active Motif 31832
Experimental: as §1, §2
Peptides used in all experiments were purchased from Anaspe. […] Final concentration of KDM5B and KDM4C used in the assay were 0.5 nM and 0.2 nM. Final concentration of peptides for 5B and 4C used in the assay were 3 nM.
4 μL of KDM5B or KDM4C protein were added to 384-well OptiPlate by using multiflow, followed by 4 μl of either buffer or compound. Plates were sealed, spun down and incubated at RT for 15 min. 4 μl of biotinylated peptide was added to the plate, the plate was incubated at room temperature for 25 minutes (KDM5B) and 30 minutes (KDM4C) after sealed and spun down. Streptavidin donor beads and acceptor beads were diluted and mixed in the detection buffer with 7.5 mM EDTA, followed by adding 8 μl of acceptor and donor beads mix to the plate, before the plate was sealed and incubated at room temperature for 3 h or overnight at dark. The plate was read on Envision plate reader (PerkinElmer) using Alphascreen protocol. IC50s were calculated in GraphPad Prism 6.

[3] = AlphaScreen, full length KDM5B 0.5 nM, biotinylated H3K4Me3 peptide 3 nM, 25 minutes at room temperature, read-out: KDM5B (IC50)

T2 sequence (Q9UGL1 whole entry): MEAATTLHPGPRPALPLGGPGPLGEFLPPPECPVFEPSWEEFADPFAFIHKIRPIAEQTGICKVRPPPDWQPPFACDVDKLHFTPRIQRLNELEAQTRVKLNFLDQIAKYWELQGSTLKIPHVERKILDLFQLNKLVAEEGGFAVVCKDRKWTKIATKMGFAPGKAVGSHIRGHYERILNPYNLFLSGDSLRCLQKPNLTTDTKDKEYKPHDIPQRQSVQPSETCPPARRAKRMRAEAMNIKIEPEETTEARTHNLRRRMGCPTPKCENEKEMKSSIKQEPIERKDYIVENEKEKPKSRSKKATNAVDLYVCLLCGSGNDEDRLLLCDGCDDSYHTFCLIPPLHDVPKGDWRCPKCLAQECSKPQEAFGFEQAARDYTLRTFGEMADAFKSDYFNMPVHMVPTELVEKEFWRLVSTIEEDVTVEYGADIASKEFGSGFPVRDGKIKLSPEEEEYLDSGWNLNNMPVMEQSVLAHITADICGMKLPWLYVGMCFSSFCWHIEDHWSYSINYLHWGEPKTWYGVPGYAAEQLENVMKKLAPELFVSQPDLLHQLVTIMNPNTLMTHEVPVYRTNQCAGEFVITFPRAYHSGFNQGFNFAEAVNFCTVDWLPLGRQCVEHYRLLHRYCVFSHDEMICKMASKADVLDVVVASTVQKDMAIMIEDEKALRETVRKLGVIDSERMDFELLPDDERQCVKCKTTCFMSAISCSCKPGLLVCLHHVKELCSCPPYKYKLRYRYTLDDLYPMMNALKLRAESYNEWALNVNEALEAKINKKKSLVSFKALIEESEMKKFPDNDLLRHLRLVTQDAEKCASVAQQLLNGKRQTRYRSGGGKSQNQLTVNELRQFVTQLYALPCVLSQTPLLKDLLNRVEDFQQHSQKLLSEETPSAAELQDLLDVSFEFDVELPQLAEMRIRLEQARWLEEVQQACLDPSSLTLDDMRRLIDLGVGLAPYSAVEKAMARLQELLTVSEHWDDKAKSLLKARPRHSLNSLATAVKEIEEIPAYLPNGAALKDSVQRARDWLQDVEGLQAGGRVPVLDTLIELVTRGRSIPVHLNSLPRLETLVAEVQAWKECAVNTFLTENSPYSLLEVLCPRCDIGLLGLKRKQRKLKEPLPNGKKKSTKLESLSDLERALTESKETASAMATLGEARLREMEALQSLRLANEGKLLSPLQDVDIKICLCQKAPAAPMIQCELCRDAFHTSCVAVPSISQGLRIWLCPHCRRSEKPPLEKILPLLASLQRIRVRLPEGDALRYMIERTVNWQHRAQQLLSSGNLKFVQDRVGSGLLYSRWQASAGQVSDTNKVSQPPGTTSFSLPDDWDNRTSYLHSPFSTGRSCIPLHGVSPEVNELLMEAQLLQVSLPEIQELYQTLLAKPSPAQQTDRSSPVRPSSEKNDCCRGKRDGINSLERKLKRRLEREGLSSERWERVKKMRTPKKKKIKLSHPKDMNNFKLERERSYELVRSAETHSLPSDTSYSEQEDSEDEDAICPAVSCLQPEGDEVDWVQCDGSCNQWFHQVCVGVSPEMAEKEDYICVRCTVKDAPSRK

SMILES	IC50 [1]	IC50 [2]	IC50 [2, 3]
Cc1n[nH]cc1-c1nc(-n2ccnc2)nc(O)c1C(C)C [Example 60, 2-(1H-Imidazol-1-yl)-6-(5-methyl-1H-pyrazol-4-yl)-5-(propan-2-yl)pyrimidin-4-ol]	1660 nM		17 nM
CC(C)c1c(O)nc(-n2ccnc2)nc1-c1cnn(Cc2ccccc2)c1 [Example 63, 6-(1-Benzyl-1H-pyrazol-4-yl)-2-(1H-imidazol-1-yl)-5-(propan-2-yl)pyrimidin-4-ol]	1540 nM	18 nM	
CC(C)c1c(O)nc(-n2ccnc2)nc1-c1cnn(Cc2ccccn2)c1 [Example 64, 2-(1H-Imidazol-1-yl)-5-(propan-2-yl)-6-[1-(pyridin-2-ylmethyl)-1H-pyrazol-4-yl]-pyrimidin-4-ol]	2010 nM		19 nM
CC(C)c1c(O)nc(-n2ccnc2)nc1-c1cnn(CCN2CCOCC2)c1 [Example 68, 2-(1H-Imidazol-1-yl)-6-{1-[2-(morpholin-4-yl)ethyl]-1H-pyrazol-4-yl}-5-(propan-2-yl)pyrimidin-4-ol]	2450 nM	21 nM	
CC(C)c1c(O)nc(-n2ccnc2)nc1-c1ccc(S(C)(=O)=O)cc1 [Example 69, 2-(1H-Imidazol-1-yl)-6-(4-methanesulfonylphenyl)-5-(propan-2-yl)pyrimidin-4-ol]	2060 nM	22 nM	
CC(C)c1c(O)nc(-n2ccnc2)nc1-c1cccnc1 [Example 70, 2-(1H-Imidazol-1-yl)-5-(propan-2-yl)-6-(pyridin-3-yl)pyrimidin-4-ol]	2660 nM	22 nM	
CC(C)c1c(O)nc(-n2ccnc2)nc1-c1cnn(-c2ccccc2)c1 [Example 71, 2-(1H-Imidazol-1-yl)-6-(1-phenyl-1H-pyrazol-4-yl)-5-(propan-2-yl)pyrimidin-4-ol]	1560 nM	24 nM	
CC(C)c1c(O)nc(-n2ccnc2)nc1-c1cccc(S(C)(=O)=O)c1 [Example 72, 2-(1H-Imidazol-1-yl)-6-(3-methanesulfonylphenyl)-5-(propan-2-yl)pyrimidin-4-ol]	4470 nM		24 nM
CC(C)c1c(O)nc(-n2ccnc2)nc1-c1cnn(CC(=O)N2CCCC(O)C2)c1 (stereo not drawn) [Example 74, 2-{4-[6-Hydroxy-2-(1H-imidazol-1-yl)-5-(propan-2-yl)pyrimidin-4-yl]-1H-pyrazol-1-yl}-1-(3-hydroxy-piperidin-1-yl)ethan-1-one]	1750 nM		25 nM
CC(C)c1c(O)nc(-n2ccnc2)nc1-c1cccc(CNS(C)(=O)=O)c1 [Example 76, N-({3-[6-Hydroxy-2-(1H-imidazol-1-yl)-5-(propan-2-yl)pyrimidin-4-yl]phenyl}-methyl)methanesulfonamide]	1860 nM	29 nM	
CC(C)c1c(O)nc(-n2ccnc2)nc1-c1cccc(CO)c1 [Example 77, 6-[3-(Hydroxymethyl)-phenyl]-2-(1H-imidazol-1-yl)-5-(propan-2-yl)pyrimidin-4-ol]	2460 nM	38 nM	
CC(C)c1c(O)nc(-n2ccnc2)nc1-c1cccc(C#N)c1 [Example 79, 3-[6-Hydroxy-2-(1H-imidazol-1-yl)-5-(propan-2-yl)pyrimidin-4-yl]benzonitrile]	5190 nM	40 nM	
CC(C)c1c(O)nc(-n2ccnc2)nc1-c1cnn(CCO)c1 [Example 80, 6-[1-(2-Hydroxyethyl)-1H-pyrazol-4-yl]-2-(1H-imidazol-1-yl)-5-(propan-2-yl)-pyrimidin-4-ol]	3490 nM	51 nM	
CC(C)c1c(O)nc(-n2ccnc2)nc1-c1cnn(CC(C)(C)O)c1 [Example 81, 6-[1-(2-Hydroxy-2-methyl-propyl)-1H-pyrazol-4-yl]-2-(1H-imidazol-1-yl)-5-(propan-2-yl)pyrimidin-4-ol]	4040 nM	60 nM	
CC(C)c1c(O)nc(-n2ccnc2)nc1-c1cccc(C(=O)N2CCOCC2)c1 [Example 82, 2-(1H-Imidazol-1-yl)-6-[3-(morpholine-4-carbonyl)-phenyl]-5-(propan-2-yl)-pyrimidin-4-ol]	7970 nM	73 nM	
CC(C)c1c(O)nc(-n2ccnc2)nc1-c1ccccc1 [Example 83, 2-(1H-Imidazol-1-yl)-6-phenyl-5-(propan-2-yl)-pyrimidin-4-ol]	2690 nM	89 nM	

These reach a lower IC50 [1]. Values come first.

IC50 [1]	IC50 [2]	IC50 [2, 3]	SMILES
1480 nM		17 nM	CC(C)c1c(O)nc(-n2ccnc2)nc1-c1ccc(S(=O)(=O)N(C)C)cc1 [Example 61, 4-[6-Hydroxy-2-(1H-imidazol-1-yl)-5-(propan-2-yl)pyrimidin-4-yl]-N,N-dimethylbenzene-1-sulfonamide]
1350 nM	25 nM		CC(C)CCn1cc(-c2nc(-n3ccnc3)nc(O)c2C(C)C)cn1 [Example 73, 2-(1H-Imidazol-1-yl)-6-[1-(3-methylbutyl)-1H-pyrazol-4-yl]-5-(propan-2-yl)pyrimidin-4-ol]
1340 nM	19 nM		CC(C)c1c(O)nc(-n2ccnc2)nc1-c1cnn(C2CCCC2)c1 [Example 67, 6-(1-Cyclopentyl-1H-pyrazol-4-yl)-2-(1H-imidazol-1-yl)-5-(propan-2-yl)pyrimidin-4-ol]
1240 nM		27 nM	CC(C)c1c(O)nc(-n2ccnc2)nc1-c1cnn(C(C)(C)C)c1 [Example 75, 6-(1-tert-Butyl-1H-pyrazol-4-yl)-2-(1H-imidazol-1-yl)-5-(propan-2-yl)pyrimidin-4-ol]
1220 nM	16 nM		CC(C)c1c(O)nc(-n2ccnc2)nc1-c1ccc(CO)cc1 [Example 58, 6-[4-(Hydroxymethyl)-phenyl]-2-(1H-imidazol-1-yl)-5-(propan-2-yl)pyrimidin-4-ol]
1180 nM	19 nM		CCn1cc(-c2nc(-n3ccnc3)nc(O)c2C(C)C)cn1 [Example 66, 6-(1-Ethyl-1H-pyrazol-4-yl)-2-(1H-imidazol-1-yl)-5-(propan-2-yl)pyrimidin-4-ol]
937 nM	19 nM		CC(C)Cn1cc(-c2nc(-n3ccnc3)nc(O)c2C(C)C)cn1 [Example 65, 2-(1H-Imidazol-1-yl)-6-[1-(2-methylpropyl)-1H-pyrazol-4-yl]-5-(propan-2-yl)pyrimidin-4-ol]
746 nM	16 nM		CC(C)c1c(O)nc(-n2ccnc2)nc1-c1cnn(C2CCOCC2)c1 [Example 59, 2-(1H-Imidazol-1-yl)-6-[1-(oxan-4-yl)-1H-pyrazol-4-yl]-5-(propan-2-yl)pyrimidin-4-ol]
